In patent US20250009901A1, “COMPOSITION COMPRISING A COMBINATION OF IMMUNE CHECKPOINT INHIBITOR AND ANTIBODY-AMATOXIN CONJUGATE FOR USE IN CANCER THERAPY” (Heidelberg Pharma Research GmbH, priority 2020, published 2025):
pKd: −log10 of the molar value.

Tests used:
[1] = test system: CD19-positive Raji cells (human Burkitt lymphoma); experiment: Raji xenograft mouse model with human PBMCs, ATAC and Avelumab (first Example 4, FIG. 5); assay type: in vivo, mice
Description: FIG. 5. Synergistic action of Avelumab and Anti-CD19-Amatoxin conjugate in the presence of peripheral blood mononuclear cells (PBMCs). Results of anti-tumoral studies using anti-PD-L1 antibody Avelumab (20 mg/kg, i.v., days 0, 3, 6, 8, 10, 13), or anti-CD19-amatoxin conjugate (ATAC, 0.1 and 0.3 mg/kg, respectively; single dose i.v. day 0), or a combination of Avelumab (20 mg/kg) and ATAC (0.1 and 0.3 mg/kg, respectively), in vivo in a Raji xenograft mice model system. Tumor volume was assessed at various time points after tumor cell inoculation.
The cytotoxic activity of the combination comprising an ICI and an ATAC has been assessed by use of a tumor mouse model in vivo. The study consisted of 6 experimental groups with 12 animals each. CD19-positive Raji cells (human Burkitt lymphoma, DSMZ) were premixed with human peripheral blood mononuclear cells (PBMCs, German Red Cross) and inoculated subcutaneously on study day 0. […] Tumor volumes were measured twice per week by calliper measurements and body weights were determined in parallel. […]

[2] = test system: Her2-positive cell line BT474; experiment: Extracellular ATP measurement (ICD marker); assay type: cell-based, human; conditions: Amanitin 100 nM, conjugates 50 nM antibody, 16, 40, 64 h post-treatment, vs media only
Description: (§1) The Her2-positive cell line BT474 is a human breast cancer cell line. The CD79b-positive cell line BJAB is a human Burkitt lymphoma-derived B cell line.
(§2) Cells of the Her2-positive cell line BT474 and of the CD79b-positive cell line BJAB, respectively, were plated at 8×10^4 cells per well in 100 μL of media. Flat bottom or U-bottom plates were used for BT474 or BJAB cells, respectively. The following day, media was changed. […] Then, cells were treated with media alone, Maytansine (100 nM), Amanitin (100 nM), Anti-HER2-Amanitin conjugate (50 nM antibody), or Anti-CD79b-Amanitin conjugate (50 nM antibody) for 16-72 h.
(§3) At 16, 40, and 64 h post-treatment, culture media was transferred to reaction tubes (Eppendorf) and centrifuged gently. Extracellular ATP concentrations were determined by use of the ENLITEN ATP Assay (Promega). Chemiluminescence was measured on a SpectraMax ME chemiluminescence reader (Molecular Devices).

[3] = test system: CD79b-positive cell line BJAB; experiment: Extracellular ATP measurement (ICD marker); assay type: cell-based, human; conditions: Amanitin 100 nM, conjugates 50 nM antibody, 16, 40, 64 h post-treatment, vs media only
Description: as §1, §2, §3

RNA-polymerase II = RNA-polymerase II (Homo sapiens, UniProt P24928); conditions: read-out: KD of the complex between amanitin and RNA-polymerase II; cited from earlier work
[4] = test system: Her2-positive cell line BT474; experiment: Calreticulin measurement (ICD marker), flow cytometry; assay type: cell-based, human; conditions: Amanitin 100 nM, conjugates 50 nM antibody, 24, 48, 72 h post-treatment, vs media only
Description: as §1, §2
(§4) Cells were assayed at 24, 48, and 72 h post-treatment. The adherent BT474 cells were lifted with a solution of highly purified, recombinant cell-dissociation enzymes (TrypLE, Thermo-Fisher) for 2 min. at 37° C. Both BT474 and BJAB cells were washed with PBS/2% FBS and then fixed in 0.5% paraformaldehyde for 5 min. After washing twice with cold PBS/2% FBS, cells were incubated for 5 min. with an Fc receptor binding inhibitor (FC block, eBioscience), blocking Fc receptor-mediated non-specific binding, followed by 30-min. incubation with Anti-Calreticulin-FITC (Abcam) or isotype control-FITC (Abcam). […] Propidium iodide (PI) was added, and samples were analyzed by flow cytometry on a FACSCanto instrument (Becton-Dickinson) using FACS Diva software.

[5] = test system: CD79b-positive cell line BJAB; experiment: as above; assay type: cell-based, human; conditions: Amanitin 100 nM, conjugates 50 nM antibody, 24, 48, 72 h post-treatment, vs media only
Description: as §1, §2, §4

[6] = test system: Her2-positive cell line BT474; experiment: Extracellular HMGB1 measurement (ICD marker), ELISA; assay type: cell-based, human; conditions: Amanitin 100 nM, conjugates 50 nM antibody, 24, 48, 72 h post-treatment, vs media only
Description: as §1, §2
(§5) Culture media was collected at 24, 48, and 72 h post-treatment. Analytes were captured on a Nunc Maxisorp 96-well plate coated at pH 9 with 1 μg/mL Anti-HMGB1 antibody (clone 1D5, Sigma), and plates were blocked with casein buffer (ThermoFisher). A standard curve was generated using recombinant human HMGB1 protein (R&D Systems) added to culture media that had been incubated at 37° C./5% CO2 for the same number of days as the experimental samples. This step had the effect of normalizing background signals observed in fresh culture media. […] After 30 min, the plate was washed with PBS/0.1% Tween-20, and bound secondary antibody was detected using Ultra TMB (Thermo Fisher); signals were read on a Molecular Devices Spectra Max M5 plate reader. […]

[7] = test system: CD79b-positive cell line BJAB; experiment: as above; assay type: cell-based, human; conditions: Amanitin 100 nM, conjugates 50 nM antibody, 24, 48, 72 h post-treatment, vs media only
Description: as §1, §2, §5

Avelumab: PD-L1-specific antibody
Reduction of the tumor volumes as compared to the control group (PBS), single agents compared with each other ([1]; Avelumab 20 mg/kg alone, ATAC 0.1 mg/kg alone): comparable | Mean TV (tumor volume) ([1]; day 31 post tumor cell inoculation, Avelumab 20 mg/kg i.v. days 0, 3, 6, 8, 10, 13): 353.1 mm^3

Amanitin
ATP secretion [2]: did not induce | ATP secretion [3]: did not induce | pKd (RNA-polymerase II): 8.52 | cell surface exposure of calreticulin (CRT) [4]: did not induce | cell surface exposure of calreticulin (CRT) [5]: did not induce | HMGB1 release [6]: did not induce | HMGB1 release [7]: did not induce
